Consider five molecules from PubChem BioAssay AID2060494 (Molecular Pharmacology Branch, DTP, NCI, 2025).

Bounds are passed on as bounds.

The term IC50 denotes the concentration that inhibits the measured activity by half. As usually defined, the viability, T/C is the ratio of treated to control.
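Further: spheroids exposed to the agents for seven days before readout.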
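Wherever viability, T/C is given: percent of vehicle control viability with DMSO wells as 100%.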

In the first test the test system is 435261-313-R-J1-PDC complex spheroid viability. Kind of test: Anticancer human tumor 435261-313-R-J1-PDC patient-derived colon adenocarcinoma cell line growth inhibition [GQUAD]. Conditions: curve of first compound; second compound 10 µM. In short, it runs like this:
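Multi-cell-type spheroids of tumor cells with HUVEC and mesenchymal stem cells, treated with drug combinations. Concentrations descend in half-log steps from near clinical Cmax, or from 10 microM where Cmax is unknown; viability read-out.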
Regarding `CC(C)n1c(=O)n(C)c2cnc3cc(F)c(-c4ccc(OCCCN5CCCCC5)nc4)cc3c21` + Cc1cnc(CNC(=O)c2c(=O)c3ccc(N4CCCN(C)CC4)nc3n3c2sc2ccccc23)cn1, the IC50 is under 31.6 nM.

`CC1COCCN1c1cc(-c2ccnn2C)c2ccnc(-c3ccn[nH]3)c2n1` (stereo unspecified) + Cc1cnc(CNC(=O)c2c(=O)c3ccc(N4CCCN(C)CC4)nc3n3c2sc2ccccc23)cn1: the IC50 is under 31.6 nM.

As to `CC1COCCN1c1cc(C2(S(C)(=N)=O)CC2)nc(-c2ccnc3[nH]ccc23)n1` (stereo unspecified) + Cc1cnc(CNC(=O)c2c(=O)c3ccc(N4CCCN(C)CC4)nc3n3c2sc2ccccc23)cn1, the IC50 was under 31.6 nM.

`COc1ccc([C@@H](O)c2cc(-c3ncnc4cc(N5CCOCC5)ccc34)c(F)cc2Cl)nn1` + Cc1cnc(CNC(=O)c2c(=O)c3ccc(N4CCCN(C)CC4)nc3n3c2sc2ccccc23)cn1: the IC50 is under 31.6 nM.

The test is the same for the next values; noted with them: second compound 0.0316 µM; first compound 0.0316 µM; stronger effect = lower value.
Regarding `O=C(NO)c1cnc(N2CCN(S(=O)(=O)c3ccc4ccccc4c3)CC2)nc1` + Cc1[nH]c2ccc(F)cc2c1-c1nc2c3cccnc3c3ncccc3c2[nH]1, the viability, T/C was 72.4%.

On to `CC(C)n1c(=O)n(C)c2cnc3cc(F)c(-c4ccc(OCCCN5CCCCC5)nc4)cc3c21` + Cc1cnc(CNC(=O)c2c(=O)c3ccc(N4CCCN(C)CC4)nc3n3c2sc2ccccc23)cn1, for which the viability, T/C is 81.5%.

Consider `CC1COCCN1c1cc(-c2ccnn2C)c2ccnc(-c3ccn[nH]3)c2n1` (stereo unspecified) + Cc1cnc(CNC(=O)c2c(=O)c3ccc(N4CCCN(C)CC4)nc3n3c2sc2ccccc23)cn1, for which the viability, T/C is 72.1%.

In the case of `CC1COCCN1c1cc(C2(S(C)(=N)=O)CC2)nc(-c2ccnc3[nH]ccc23)n1` (stereo unspecified) + Cc1cnc(CNC(=O)c2c(=O)c3ccc(N4CCCN(C)CC4)nc3n3c2sc2ccccc23)cn1, the viability, T/C is 52.9%.

Take `COc1ccc([C@@H](O)c2cc(-c3ncnc4cc(N5CCOCC5)ccc34)c(F)cc2Cl)nn1` + Cc1cnc(CNC(=O)c2c(=O)c3ccc(N4CCCN(C)CC4)nc3n3c2sc2ccccc23)cn1: the viability, T/C is 59.5%.

Still in this test, the particulars now being: second compound 0.0316 µM; first compound 0.1 µM; stronger effect = lower value.
As to `O=C(NO)c1cnc(N2CCN(S(=O)(=O)c3ccc4ccccc4c3)CC2)nc1` + Cc1[nH]c2ccc(F)cc2c1-c1nc2c3cccnc3c3ncccc3c2[nH]1, the viability, T/C was 66.6%.

`CC(C)n1c(=O)n(C)c2cnc3cc(F)c(-c4ccc(OCCCN5CCCCC5)nc4)cc3c21` + Cc1cnc(CNC(=O)c2c(=O)c3ccc(N4CCCN(C)CC4)nc3n3c2sc2ccccc23)cn1: the viability, T/C was 68%.

On to `CC1COCCN1c1cc(-c2ccnn2C)c2ccnc(-c3ccn[nH]3)c2n1` (stereo unspecified) + Cc1cnc(CNC(=O)c2c(=O)c3ccc(N4CCCN(C)CC4)nc3n3c2sc2ccccc23)cn1, for which the viability, T/C is 54.9%.

On to `CC1COCCN1c1cc(C2(S(C)(=N)=O)CC2)nc(-c2ccnc3[nH]ccc23)n1` (stereo unspecified) + Cc1cnc(CNC(=O)c2c(=O)c3ccc(N4CCCN(C)CC4)nc3n3c2sc2ccccc23)cn1, for which the viability, T/C is 57.6%.

As for `COc1ccc([C@@H](O)c2cc(-c3ncnc4cc(N5CCOCC5)ccc34)c(F)cc2Cl)nn1` + Cc1cnc(CNC(=O)c2c(=O)c3ccc(N4CCCN(C)CC4)nc3n3c2sc2ccccc23)cn1, the viability, T/C is 67.4%.

The same test, now with this note: second compound 0.0316 µM; first compound 0.316 µM; stronger effect = lower value.
Regarding `O=C(NO)c1cnc(N2CCN(S(=O)(=O)c3ccc4ccccc4c3)CC2)nc1` + Cc1[nH]c2ccc(F)cc2c1-c1nc2c3cccnc3c3ncccc3c2[nH]1, the viability, T/C was 52.3%.

For `CC(C)n1c(=O)n(C)c2cnc3cc(F)c(-c4ccc(OCCCN5CCCCC5)nc4)cc3c21` + Cc1cnc(CNC(=O)c2c(=O)c3ccc(N4CCCN(C)CC4)nc3n3c2sc2ccccc23)cn1, the viability, T/C was 74.5%.

For the molecule `CC1COCCN1c1cc(-c2ccnn2C)c2ccnc(-c3ccn[nH]3)c2n1` (stereo unspecified) + Cc1cnc(CNC(=O)c2c(=O)c3ccc(N4CCCN(C)CC4)nc3n3c2sc2ccccc23)cn1, the viability, T/C is 54.7%.

`CC1COCCN1c1cc(C2(S(C)(=N)=O)CC2)nc(-c2ccnc3[nH]ccc23)n1` (stereo unspecified) + Cc1cnc(CNC(=O)c2c(=O)c3ccc(N4CCCN(C)CC4)nc3n3c2sc2ccccc23)cn1: the viability, T/C is 66.8%.

For the molecule `COc1ccc([C@@H](O)c2cc(-c3ncnc4cc(N5CCOCC5)ccc34)c(F)cc2Cl)nn1` + Cc1cnc(CNC(=O)c2c(=O)c3ccc(N4CCCN(C)CC4)nc3n3c2sc2ccccc23)cn1, the viability, T/C was 71.8%.

Staying with this test, now noted: second compound 0.0316 µM; first compound 1 µM; stronger effect = lower value.
In the case of `O=C(NO)c1cnc(N2CCN(S(=O)(=O)c3ccc4ccccc4c3)CC2)nc1` + Cc1[nH]c2ccc(F)cc2c1-c1nc2c3cccnc3c3ncccc3c2[nH]1, the viability, T/C is 37.3%.

As for `CC(C)n1c(=O)n(C)c2cnc3cc(F)c(-c4ccc(OCCCN5CCCCC5)nc4)cc3c21` + Cc1cnc(CNC(=O)c2c(=O)c3ccc(N4CCCN(C)CC4)nc3n3c2sc2ccccc23)cn1, the viability, T/C was 56.7%.

Take `CC1COCCN1c1cc(-c2ccnn2C)c2ccnc(-c3ccn[nH]3)c2n1` (stereo unspecified) + Cc1cnc(CNC(=O)c2c(=O)c3ccc(N4CCCN(C)CC4)nc3n3c2sc2ccccc23)cn1: the viability, T/C was 35.4%.

Consider `CC1COCCN1c1cc(C2(S(C)(=N)=O)CC2)nc(-c2ccnc3[nH]ccc23)n1` (stereo unspecified) + Cc1cnc(CNC(=O)c2c(=O)c3ccc(N4CCCN(C)CC4)nc3n3c2sc2ccccc23)cn1, for which the viability, T/C is 53.9%.

Consider `COc1ccc([C@@H](O)c2cc(-c3ncnc4cc(N5CCOCC5)ccc34)c(F)cc2Cl)nn1` + Cc1cnc(CNC(=O)c2c(=O)c3ccc(N4CCCN(C)CC4)nc3n3c2sc2ccccc23)cn1, for which the viability, T/C is 39.2%.

Staying with this test, now noted: second compound 0.0316 µM; first compound 3.16 µM; stronger effect = lower value.
With `O=C(NO)c1cnc(N2CCN(S(=O)(=O)c3ccc4ccccc4c3)CC2)nc1` + Cc1[nH]c2ccc(F)cc2c1-c1nc2c3cccnc3c3ncccc3c2[nH]1, the viability, T/C was 0.25%.

Consider `CC(C)n1c(=O)n(C)c2cnc3cc(F)c(-c4ccc(OCCCN5CCCCC5)nc4)cc3c21` + Cc1cnc(CNC(=O)c2c(=O)c3ccc(N4CCCN(C)CC4)nc3n3c2sc2ccccc23)cn1, for which the viability, T/C was 61.4%.
